{
  "source": "paper PMC6022226",
  "about": "“Novel coumarin-6-sulfonamides as apoptotic anti-proliferative agents: synthesis, in vitro biological evaluation, and QSAR studies” (Journal of Enzyme Inhibition and Medicinal Chemistry, 2018)",
  "key": {"[1]": {"test_system": "HepG2 hepatocellular carcinoma", "experiment": "In vitro anti-proliferative activity, SRB assay, HepG2", "type": "cell-based, human", "conditions": "for IC50: Homo sapiens", "method": "(§1) HepG2 liver cancer, MCF-7 breast cancer and Caco-2 cancer cell lines were obtained from the National Cancer Institute (Cairo, Egypt). Caco-2 cells were grown in DMEM while HepG2 and MCF-7 were grown in RPMI-1640. Media were supplemented with 10% heat-inactivated FBS, 50 units/mL of penicillin and 50 µg/mL of streptomycin and maintained at 37 °C in a humidified atmosphere containing 5% CO2. The cells were maintained as a “monolayer culture” by serial subculturing. Cytotoxicity was determined using the sulforhodamine B (SRB) method as previously described by Skehan et al.[50] Exponentially growing cells were collected using 0.25% trypsin-EDTA and seeded in 96-well plates at 1000–2000 cells/well in supplemented DMEM medium. After 24 h, cells were incubated for 72 h with various concentrations of the tested compounds as well as doxorubicin as the reference compound. Following 72 h of treatment, the cells were fixed with 10% trichloroacetic acid for 1 h at 4 °C. Wells were stained for 10 min at room temperature with 0.4% SRB dissolved in 1% acetic acid. The plates were air dried for 24 h, and the dye was solubilized with Tris–HCl for 5 min on a shaker at 1600 rpm. The optical density (OD) of each well was measured spectrophotometrically at 564 nm with an ELISA microplate reader (ChroMate-4300, FL, USA). The IC50 values were calculated according to the equation for Boltzmann sigmoidal concentrationeresponse curve using the nonlinear regression models (GraphPad, Prism Version 5). The results reported are means of at least three separate experiments. Significant differences were analyzed by one-way ANOVA wherein the differences were considered to be significant at p < .05.\n(§2) All the newly synthesized target coumarin sulfonamides were evaluated for their in vitro anti-proliferative activity against three human tumor cancer cell lines, HepG2 hepatocellular carcinoma, MCF-7 breast cancer, and Caco-2 colon cancer, using SRB colorimetric assay as described by Skehan et al.^50 Doxorubicin was involved in the experiments as a reference cytotoxic compound."}, "MCF-7 breast cancer": {"test_system": "MCF-7 breast cancer", "experiment": "In vitro anti-proliferative activity, SRB assay, MCF-7", "type": "cell-based, human", "conditions": "Homo sapiens, MCF7, 72 h incubation, mean ± SE of three experiments", "method": "as §1, §2"}, "Caco-2 colon cancer": {"test_system": "Caco-2 colon cancer", "experiment": "In vitro anti-proliferative activity, SRB assay, Caco-2", "type": "cell-based, human", "conditions": "Homo sapiens, Caco-2", "method": "as §1, §2"}, "[2]": {"test_system": "non-tumorigenic human normal lung fibroblast cell line (WI-38)", "experiment": "In vitro cytotoxicity towards normal WI-38 cells", "type": "cell-based"}, "caspase-3": {"test_system": "caspase-3", "experiment": "ELISA immunoassay, active caspase-3 level in HepG2 cells", "type": "cell-based, human", "conditions": "HepG2 cells treated at IC50 concentration", "source_text": "(§3) The levels of the apoptotic markers (Bax, caspase-3) and the anti-apoptotic marker (Bcl-2) were examined using ELISA colorimetric kits per the manufacturer’s protocol and referring to reported instructions[51] ^, [52].\nAs a key executioner protease, caspase-3 is activated by upstream initiator caspases as caspase-9."}, "Bax": {"test_system": "Bax", "experiment": "ELISA immunoassay, Bax expression level in HepG2 cells", "type": "cell-based, human", "conditions": "HepG2 cells treated at IC50 concentration", "source_text": "as §3\n(§4) The Bcl-2 proteins family is mainly responsible for synchronizing the mitochondrial apoptotic pathway, and classified into two major classes: anti-apoptotic proteins such as Bcl-2 protein and the counteracting pro-apoptotic proteins including Bax protein. In this study, we examined the impact of coumarins 13a and 15a on the level of the anti-apoptotic Bcl2 and the level of the pro-apoptotic Bax (Table 3)."}, "Bcl-2": {"test_system": "Bcl-2", "experiment": "ELISA immunoassay, Bcl-2 expression level in HepG2 cells", "type": "cell-based, human", "conditions": "HepG2 cells treated at IC50 concentration", "source_text": "as §3, §4"}, "HepG2 cells [3]": {"test_system": "HepG2 cells", "experiment": "Cell cycle analysis by DNA flow cytometry (PI)", "type": "cell-based, human", "conditions": "HepG2, 24 h, at IC50 concentration", "method": "Subsequently, the treated cells were collected by centrifugation, fixed in ice-cold 70% (v/v) ethanol, washed with PBS, re-suspended with 0.1 mg/mL RNase, stained with […] PI, and analyzed by flow cytometry using FACS Calibur (Becton Dickinson, BD). The cell cycle distributions were calculated using CellQuest software (Becton Dickinson)[53].\nThe impact of compound 13a on cell cycle progression was examined in HepG2 cancer cell line after 24 h of treatment (Figure 2). This impact was illustrated by DNA flow cytometric analysis where HepG2 cells were treated with 13a at concentration equals to its IC50. […] Alteration of the Pre-G1 phase and arrest of G2-M phase were significant remarks for compound 13a to induce apoptosis in HepG2 cells."}, "HepG2 cells [4]": {"test_system": "HepG2 cells", "experiment": "Annexin V-FITC/PI apoptosis assay", "type": "cell-based, human", "conditions": "HepG2, 24 h", "method": "Phosphatidylserine externalization was measured using Annexin V-FITC/PI apoptosis detection kit (BD Biosciences, San Jose, CA) according to the manufacturer's instructions, as reported earlier. HepG2 cells were treated with 13a at defined concentrations for 24 h.\nThe apoptotic effect of coumarin 13a was further assured by Annexin V-FITC/PI (AV/PI) dual staining assay to investigate the occurrence of phosphatidylserine externalization (Figure 3)."}},
  "note": "Read-outs that look alike come from different tables or passages of the source.",
  "data": [
    {"smiles": "CC(=NNc1nc(-c2ccccc2)cs1)c1ccc(NS(=O)(=O)c2ccc3oc(=O)ccc3c2)cc1", "note": "[Compound 13a, 2-Oxo-N-(4–(1-(2–(4-phenylthiazol-2-yl)hydrazono)ethyl)phenyl)-2H-chromene-6-sulfonamide]", "values": [
      {"measurement": "fold increased potency than doxorubicin", "setting": "[1]; HepG2 IC50 ratio", "value": 1.5, "unit": "fold"},
      {"measurement": "IC50", "setting": "[1]; HepG2, 72 h, 72 h incubation, SRB, mean ± SE of three experiments, read-out: IC50 HepG2", "value": "3.48 ± 0.28", "unit": "µM"},
      {"measurement": "IC50", "setting": "[1]; HepG2, training set, Table 4, -log IC50 (IC50 in µM), read-out: HepG2 Experimental activity (pIC50) (converted)", "value": 3.48, "unit": "µM"},
      {"measurement": "IC50", "setting": "MCF-7 breast cancer", "value": "83.2 ± 6.85", "unit": "µM"},
      {"measurement": "IC50", "setting": "Caco-2 colon cancer; 72 h incubation, SRB, mean ± SE of three experiments, read-out: IC50 Caco-2", "value": "83.4 ± 7.04", "unit": "µM"},
      {"measurement": "IC50", "setting": "Caco-2 colon cancer; training set, Table 4, -log IC50 (IC50 in µM), read-out: Caco-2 Experimental activity (pIC50) (converted)", "value": 83.4, "unit": "µM"},
      {"measurement": "IC50", "setting": "[2]; Homo sapiens, WI-38, normal lung fibroblasts", "value": "73.2 ± 3.47", "unit": "µM"},
      {"measurement": "Selectivity index", "setting": "[2]; WI-38 versus HepG2", "value": 21},
      {"measurement": "Caspase-3 (active caspase-3 level)", "setting": "caspase-3", "value": 0.3021, "unit": "ng/mg protein"},
      {"measurement": "Bax expression level", "setting": "Bax", "value": 453.3, "unit": "Pg/mg protein"},
      {"measurement": "Bax, folds of control", "setting": "Bax", "value": 16.5, "unit": "folds"},
      {"measurement": "Bcl-2, folds of control", "setting": "Bcl-2", "value": 0.21, "unit": "folds"},
      {"measurement": "Bcl-2 expression level", "setting": "Bcl-2", "value": 1.51, "unit": "ng/mg protein"},
      {"measurement": "Bcl-2 level, % of control", "setting": "Bcl-2", "value": 21.4, "unit": "%"},
      {"measurement": "arrest in G2-M phase compared to control", "setting": "HepG2 cells [3]", "value": 5.4, "unit": "folds"},
      {"measurement": "increase in percentage of cells at Pre-G1 compared to control", "setting": "HepG2 cells [3]", "value": 6.4, "unit": "folds"},
      {"measurement": "annexin V-FITC positive apoptotic cells, folds compared to control", "setting": "HepG2 cells [4]", "value": "about 7.9 folds"},
      {"measurement": "annexin V-FITC positive apoptotic cells (UR + LR)", "setting": "HepG2 cells [4]; control 1.75%", "value": 13.76, "unit": "%"}
    ]}
  ]
}
